# Measurements as given in US7897641B2, “Composition for the prevention and/or treatment of the cytotoxic effects induced by the use of immunosuppressive agents” (Sigma-Tau Industrie Farmaceutiche Riunite S.p.A., priority 2000, dated 2011).
# Read-outs that look alike come from different tables or passages of the source.
# What was measured:
# [1] = tested on: rats intoxicated with CCL4; test: Protection against liver damage in rats intoxicated with CCl4; format: in vivo, rat; details: treatment 300 mg/kg i.p. half an hour before CCl4; for Alanine aminotranferase activity (ALT): blood 24 h after CCl4 1 mL/kg of 20% solution, controls 12.5 ± 1.7; for Triglycerides: liver 24 h after CCl4, controls 6.5 ± 0.7
# Method: CCl4 was administered at the dose of 1 mL/kg of a 20% solution in olive oil according to the technique described by Bernacchi (Bernacchi A. G., Brit. J. Exp. Pathol., 61:505, 1980).
# Twenty-four hours after administration of CCl4, alanine aminotransferase was assayed as an indicator of enzymatic liver damage in blood from the animals thus treated, according to the colorimetric method described by Reitman (Reitman S., Am. J. Clin. Pathol., 28:56, […]), whereas from the livers taken from the same animals triglycerides were extracted with methanol and chloroform and assayed according to the method described by Kleir (Kleir, J. Biochem. Clin. Bohenescov., 9:243, 1999). The livers were then fixed with Carnon fixative and, after embedding in paraplast, were stained with haematoxylin and eosin.
# [2] = tested on: isolated, perfused rat kidneys; test: Renal lipoperoxidation induced by cyclosporin-A (MDA + 4-HDA assay); details: for MDA + 4-HDA: renal cortex, kidneys perfused with cyclosporin-A, alone or with treatment, control 2.1 ± 0.91
# Method: (§1) In these tests a group of rats were used whose kidneys were isolated, after bilateral nephrectomy, and perfused according to the technique described by Schure and Maack.
# (§2) The kidneys thus isolated were perfused by means of a pulsating pump both with a solution containing cyclosporin A or tacrolimus and with a solution containing propionyl L-carnitine or glycine or the two components in combination.
# (§3) Lipid peroxidation was measured on samples of renal cortex as described by Longoni (Longoni B., Int. J. Tissue React., 21.7.1997-Lowry O. H., J. Biol. Bioch., 193:265, 1951) and ATP concentrations were determined according to the method described by Sumpio (Sumpio B. E., Am. J. Physiol., 247, PT2, 1047, 1984).
# [3] = tested on: isolated and perfused rat kidney; test: Tests of cyclosporin-A toxicity in isolated and perfused rat kidney, overall assessment; details: in words
# Description: (§4) Using the isolated rat kidney according to the technique described by Maack (Maack P., Kidney Int., 30:142, 1986) and Shure (Shure K. H., Delugers Arch., 35:4, 1975) and perfusing it with a solution containing cyclosporin-A, it is possible to detect the toxic reactions this substance induces at the renal level relating both to the renal cytomorphology, particularly at the tubular level, and to arteriolar and […] capillary vasoconstriction and the release of enzymes such as alanine aminopeptidase (AAP) and N-acetylglucosaminidase (NAG), the release of which is regarded as a sign of cell damage, as is the release of vasoactive substances such as histamine and endothelin-1.
# as §1, §2
# [4] = tested on: perfused rat kidneys; test: Renal hypertension induced by cyclosporin-A or tacrolimus in perfused rat kidneys; details: treatment 5 mg/L each; for inhibition at 5 µg/mL: Rattus norvegicus
# Description: as §4, §1, §2
# Arterial pressure on the perfused kidney was measured by means of a manometer connected up to the renal artery.
# [5] = tested on: isolated, perfused rat kidneys; test: Reduction of renal ATP induced by cyclosporin-A; details: for ATP: kidneys perfused with cyclosporin-A, alone or with treatment, control 6.70 ± 0.51
# Method: as §1, §2, §3
# [6] = tested on: isolated, perfused rat kidneys; test: Glomerular and tubular morphometric abnormalities induced by cyclosporin-A in perfused rat kidney; details: for Morphometric indices, tubular ID/ED / Morphometric indices, glomerular CD/BD: kidneys perfused with cyclosporin-A 2 mg/L, alone or with treatment 5 mg/L; for Morphometric indices, tubular ID/ED: control 0.36 ± 0.03; for Morphometric indices, glomerular CD/BD: control 0.93 ± 0.09
# Description: as §1, §2
# The parameters observed on the kidneys thus perfused were the capillary diameters (CD) and the Bowman's capsule diameters (BD) and equally the external and internal diameter (ID) and also the diameter at the level of the basal membrane (ED) of at least 20 proximal tubules.
# [7] = tested on: isolated, perfused rat kidneys; test: Renal tubular damage evaluated by release of alanine aminopeptidase (AAP) and N-acetylglucosaminidase (NAG) in isolated, perfused rat kidneys; details: treatment 5 mg/L each, after 5 min perfusion
# Description: as §4, §1, §2
# (§5) A […] method was used to measure both AAP and NAG on the renal venous flow. Histamine and endothelin-1 were measured with a colorimetric method or with RIA.
# [8] = tested on: Sprague Dawley rats; test: Toxicology tests, acute i.p./oral and prolonged oral administration
# [9] = tested on: isolated, perfused rat kidneys; test: Histamine and endothelin-1 release induced by cyclosporin-A or tacrolimus in isolated, perfused rat kidneys; details: for % inhibition of release, endothelin-1 / % inhibition of release, histamine: treatment 5 mg/L each, after 1 min perfusion
# Description: as §4, §1, §2, §5
# [10] = tested on: Sprague Dawley rats; details: rat, in vivo, 500 mg/kg
# [11] = induced by cyclosporin-A 2 mg/L
Compound,Alanine aminotranferase activity (ALT) [1],Triglycerides [1],MDA + 4-HDA [2],protection of the kidney against morphological/vascular and cellular biochemical damage induced by cyclosporin-A or tacrolimus [3],ATP [5],"Morphometric indices, tubular ID/ED [6]","Morphometric indices, glomerular CD/BD [6]","% inhibition of release, AAP [7, 11]","% inhibition of release, NAG [7, 11]","% inhibition of release, AAP ([7]; induced by tacrolimus 400 μg/L)","% inhibition of release, NAG ([7]; induced by tacrolimus 400 μg/L)","mortality or other sign of toxic effects ([8]; intraperitoneal, 0.5 g/kg each)","mortality or other sign of toxic effects ([8]; oral, 1 g/kg each)","% inhibition of release, endothelin-1 [9, 11]","% inhibition of release, histamine [9, 11]","% inhibition of release, endothelin-1 ([9]; induced by tacrolimus 400 μg/L)","% inhibition of release, histamine ([9]; induced by tacrolimus 400 μg/L)",also measured
"ClC(Cl)(Cl)Cl [CCl4, carbon tetrachloride, reference compound]",105.4 ± 3.8 U/L,26.5 ± 0.11 mg/g,,,,,,,,,,,,,,,,
"NCC(=O)O [Glycine, glycine]",90.2 ± 8.6 U/L,22.2 ± 2.1 mg/g,4.8 ± 0.41 nmol/mg protein,much less effective,4.56 ± 0.49 nM/g tissue,0.66 ± 0.5,0.80 ± 0.5,14.2 ± 0.9%,16.5 ± 0.6%,18.5 ± 1.1%,17.2 ± 0.9%,without any mortality being observed,without any mortality being observed,8.8 ± 0.9%,10.4 ± 1.1%,6.5 ± 0.7%,7.5 ± 0.8%,"effect on the lipid peroxidation activity induced by cyclosporin-A ([2]; in words): detectable protective effect; inhibition at 5 µg/mL ([4]; 5 min, hypertension induced by cyclosporin-A 2 mg/L, 5 min, read-out: % inhibition of hypertensive effect after 5 min): 6.3 ± 0.9%; inhibition at 5 µg/mL ([4]; 5 min, hypertension induced by tacrolimus 400 μg/L, 5 min, read-out: % inhibition of hypertensive effect after 5 min): 4.8 ± 7.1%; inhibition at 5 µg/mL ([4]; 20 min, hypertension induced by cyclosporin-A 2 mg/L, 20 min, read-out: % inhibition of hypertensive effect after 20 min): 6.8 ± 0.3%; inhibition at 5 µg/mL ([4]; 20 min, hypertension induced by tacrolimus 400 μg/L, 20 min, read-out: % inhibition of hypertensive effect after 20 min): 7.4 ± 0.9%; action on the reduction in intracellular ATP ([5]; cyclosporin A, in words): not significantly detectable; action on the morphological damage induced by cyclosporin A ([6]; in words): not significantly detectable; action on the release of vasoactive substances such as histamine and endothelin ([9]; cyclosporin A, in words): not significantly detectable; tolerability of prolonged oral administration [10]: well tolerated"
"CCC(=O)O[C@H](CC(=O)[O-])C[N+](C)(C)C [Propionyl L-carnitine, propionyl L-carnitine]",75.8 ± 5.5 U/L,18.8 ± 1.8 mg/g,4.2 ± 0.39 nmol/mg protein,effective in protecting the kidney,6.05 ± 0.61 nM/g tissue,0.40 ± 0.06,0.86 ± 0.7,32.8 ± 3.1%,30.5 ± 2.6%,35.1 ± 2.9%,30.8 ± 2.5%,without any mortality being observed,without any mortality being observed,41.2 ± 3.8%,39.5 ± 4.1%,34.7 ± 2.7%,41.5 ± 3.9%,"% inhibition of hypertensive effect after 5 min ([4]; hypertension induced by cyclosporin-A 2 mg/L, 5 min): 18.2 ± 1.5%; % inhibition of hypertensive effect after 20 min ([4]; hypertension induced by cyclosporin-A 2 mg/L, 20 min): 28.4 ± 2.1%; % inhibition of hypertensive effect after 5 min ([4]; hypertension induced by tacrolimus 400 μg/L, 5 min): 22.5 ± 2.3%; % inhibition of hypertensive effect after 20 min ([4]; hypertension induced by tacrolimus 400 μg/L, 20 min): 30.7 ± 2.9%; tolerability of prolonged oral administration ([8]; oral 500 mg/kg each for 20 days consecutively, weight gain and blood chemistry without toxic abnormalities): well tolerated"
cyclosporin-A [reference compound],,,6.5 ± 0.52 nmol/mg protein,,4.51 ± 0.41 nM/g tissue,0.75 ± 0.08,0.78 ± 0.02,,,,,,,,,,,
